Data from patent publication EP4768499A1, “MACROCYCLIC PEPTIDE COMPOUND HAVING CELL MEMBRANE PERMEABILITY AND METABOLIC STABILITY, AND LIBRARY CONTAINING SAME” (Chugai Seiyaku Kabushiki Kaisha, priority 2023, dated 2025).
Starred links: 1 amine or outer side, 2 acyl side, 3 side chain; linkers in the order of their positions; H or OH if unused. Positions of bridges follow the written chain, without caps; N, C: chain ends. Non-standard residues stand in square brackets, D forms with d. Residues, ends and D or L forms follow the SMILES beside them. *: point of attachment. NMeF = CN[C@@H](Cc1ccccc1)C(=O)O; NMeGABA = CN(CCCC(=O)[*:2])[*:1]; NMeI = CC[C@H](C)[C@H](NC)C(=O)O; NMeT = CN[C@H](C(=O)O)[C@@H](C)O; hPhe = N[C@@H](CCc1ccccc1)C(=O)O; NMeβAla = CN(CCC(=O)[*:2])[*:1]; NMeL = CN[C@@H](CC(C)C)C(=O)O; dNMeV = CN[C@@H](C(=O)O)C(C)C; NMeV = CN[C@H](C(=O)O)C(C)C; d(β3hA) = C[C@@H](N)CC(=O)O; NMeAbu = CC[C@H](NC)C(=O)O; NMeA = CN[C@@H](C)C(=O)O; Piperidide = C1CCN(*)CC1; dNMeA = CN[C@H](C)C(=O)O; Abu = CC[C@H](N)C(=O)O; NBuGly = CCCCNCC(=O)O; Sar = CNCC(=O)O; tBu = CC(C)(C)*

Tests used:
[1] = Membrane permeability test using Caco-2 cells with preincubation; assay type: in vitro ADME; conditions: Caco-2; preincubation 20 to 24 hours; Apical FaSSIF/HBSS pH 6.0, Basal HBSS 4% BSA pH 7.4; 180 minutes; read-out: Caco2 Papp
Caco-2 cells = assay: as above; assay type: in vitro ADME; conditions: Caco-2 cells, preincubation 20 to 24 hours; apical FaSSIF/HBSS 1% DMSO pH 6.0, basal HBSS 4% BSA pH 7.4; basal sample at 180 minutes
[2] = Metabolic stability test: liver microsomal stability assay; assay type: in vitro ADME, mouse; conditions: mouse liver microsomes 0.5 mg protein/mL, compound 1 µM; for microsomal CLint at 1 µM: male, pH 7.4, presence of NADPH, read-out: Mouse Hepatic Microsome CLh,int NADPH(+); for Mouse Hepatic Microsome CLh,int NADPH(-): absence of NADPH

SMILES	Papp A→B [1]	Caco2 Papp (10^-6 cm/sec) (Caco-2 cells)	microsomal CLint at 1 µM [2]	Mouse Hepatic Microsome CLh,int NADPH(-) [2]
CC[C@H](C)[C@@H]1NC(=O)[C@H](CC(C)C)N(C)C(=O)[C@H](CC(C)C)NC(=O)[C@H](C)N(C)C(=O)C[C@@H](C)NC(=O)[C@H](CC(C)C)NC(=O)[C@H](CC(C)C)N(C)C(=O)CN(C)C(=O)[C@H](C(C)C)NC(=O)[C@H]([C@@H](C)CC)N(C)C(=O)[C@H](CC(C)C)N(C)C(=O)[C@H](C)NC(=O)[C@H](Cc2ccccc2)N(C)C1=O [pd127] (cyclo(A[NMeL][NMeI]V[Sar][NMeL]L[d(β3hA)][NMeA]L[NMeL]I[NMeF]))	0.36 ×10⁻⁶ cm/s	0.36 10^-6 cm/sec	41.6 µL/min/mg	28.0 µL/min/mg Protein
CC[C@@H]1NC(=O)[C@H](CC(C)C)N(C)C(=O)[C@H]([C@@H](C)CC)NC(=O)CN(C)C(=O)C[C@@H](C)NC(=O)[C@H](C(C)C)N(C)C(=O)[C@H](COC(C)(C)C)NC(=O)[C@H](CC(C)C)N(C)C(=O)[C@H](Cc2ccccc2)N(C)C(=O)[C@H](CC(C)C)NC(=O)CN(C)C(=O)[C@H]([C@@H](C)O)NC(=O)[C@H](CC(C)C)N(C)C1=O [pd129] (cyclo([Abu][NMeL]T[Sar]L[NMeF][NMeL]S(tBu)[NMeV][d(β3hA)][Sar]I[NMeL]))	0.71 ×10⁻⁶ cm/s	0.71 10^-6 cm/sec	76.5 µL/min/mg	19.7 µL/min/mg Protein
CC[C@H]1C(=O)N(C)[C@@H](C)C(=O)N(C)[C@@H](C(C)C)C(=O)N[C@H](C)CC(=O)N[C@H](C(C)C)C(=O)N(C)[C@@H](CC(C)C)C(=O)N[C@@H](CC(C)C)C(=O)N(C)[C@@H](C(C)C)C(=O)N(C)[C@@H](CC(C)C)C(=O)N(C)CC(=O)N[C@@H]([C@@H](C)O)C(=O)N(C)[C@@H](Cc2ccccc2)C(=O)N[C@@H](COC(C)(C)C)C(=O)N1C [pd131] (cyclo(L[NMeV][NMeL][Sar]T[NMeF]S(tBu)[NMeAbu][NMeA][NMeV][d(β3hA)][dV][NMeL]))	2.18 ×10⁻⁶ cm/s	2.18 10^-6 cm/sec	17.8 µL/min/mg	13.5 µL/min/mg Protein
CC[C@H](C)[C@@H]1NC(=O)[C@H](C)N(C)C(=O)[C@H]([C@@H](C)O)N(C)C(=O)[C@H](CC(C)C)N(C)C(=O)[C@H](C(C)C)NC(=O)[C@H](Cc2ccccc2)N(C)C(=O)[C@H](Cc2ccccc2)N(C)C(=O)[C@H](C)NC(=O)[C@H](CC)N(C)C(=O)[C@H]([C@@H](C)CC)NC(=O)CCCN(C)C(=O)C[C@@H](C)NC(=O)[C@H](C(C)C)N(C)C1=O [pd132] (cyclo(A[NMeF][NMeF]V[NMeL][NMeT][NMeA]I[NMeV][d(β3hA)][NMeGABA]I[NMeAbu]))	0.36 ×10⁻⁶ cm/s	0.36 10^-6 cm/sec	16.2 µL/min/mg	7.7 µL/min/mg Protein
CC[C@H](C)[C@@H]1NC(=O)[C@H](CCc2ccccc2)NC(=O)[C@H](CC(C)C)N(C)C(=O)[C@H](C)N(C)C(=O)[C@H](Cc2ccccc2)N(C)C(=O)[C@@H]2CCCN2C(=O)[C@H]([C@@H](C)CC)NC(=O)[C@H](CC(C)C)N(C)C(=O)CCN(C)C(=O)C[C@@H](C)NC(=O)[C@H](CC(C)C)N(C)C(=O)[C@H]([C@@H](C)O)NC(=O)[C@H](C)N(C)C1=O [pd133] (cyclo(I[NMeA]T[NMeL][d(β3hA)][NMeβAla][NMeL]IP[NMeF][NMeA][NMeL][hPhe]))	0.53 ×10⁻⁶ cm/s	0.53 10^-6 cm/sec	25.6 µL/min/mg	23.6 µL/min/mg Protein
CC[C@H](C)[C@@H]1NC(=O)[C@H](CC(C)C)N(C)C(=O)[C@H](C)N(C)C(=O)[C@H](C)N(C)C(=O)C[C@@H](C)NC(=O)[C@H](CC(C)C)NC(=O)[C@H](CC(C)C)N(C)C(=O)CN(C)C(=O)[C@H]([C@@H](C)O)NC(=O)[C@H]([C@@H](C)CC)N(C)C(=O)[C@H](CC(C)C)N(C)C(=O)[C@H](C(C)C)NC(=O)[C@H](Cc2ccccc2)N(C)C1=O [pd134] (cyclo(I[NMeF]V[NMeL][NMeI]T[Sar][NMeL]L[d(β3hA)][NMeA][NMeA][NMeL]))	0.75 ×10⁻⁶ cm/s	0.75 10^-6 cm/sec	38.5 µL/min/mg	11.4 µL/min/mg Protein

Second part, the molecule after the results:

Papp A→B [1]	Caco2 Papp (10^-6 cm/sec) (Caco-2 cells)	microsomal CLint at 1 µM [2]	Mouse Hepatic Microsome CLh,int NADPH(-) [2]	SMILES
0.06 ×10⁻⁶ cm/s	0.06 10^-6 cm/sec	11.1 µL/min/mg	9.6 µL/min/mg Protein	CC[C@@H]1NC(=O)[C@@H]2CCCN2C(=O)[C@H](C(C)C)NC(=O)[C@H](Cc2ccccc2)N(C)C(=O)[C@H](C)N(C)C(=O)[C@H](CC(C)C)N(C)C(=O)[C@H]([C@@H](C)O)N(C)C(=O)[C@H](CC(C)C)N(C)C(=O)[C@H](CC)NC(=O)[C@H](Cc2ccccc2)N(C)C(=O)CN(C)C(=O)C[C@@H](C(=O)N2CCCCC2)NC(=O)[C@H](C(C)C)N(C)C1=O [pd122] ([Sar][NMeF][Abu][NMeL][NMeT][NMeL][NMeA][NMeF]VP[Abu][NMeV]D-Piperidide; lactam N-13)
0.56 ×10⁻⁶ cm/s	0.56 10^-6 cm/sec	31 µL/min/mg	36.0 µL/min/mg Protein	CCCCN1CC(=O)N(C)[C@@H](CC(C)C)C(=O)N[C@@H](COC(C)(C)C)C(=O)N(C)[C@@H](Cc2ccccc2)C(=O)N(C)[C@@H](C)C(=O)N(C)[C@@H](C(C)C)C(=O)N[C@H](C(=O)N2CCCCC2)CC(=O)N(C)[C@H](C(C)C)C(=O)N(C)[C@@H](Cc2ccccc2)C(=O)N2CCC[C@H]2C(=O)N(C)[C@@H](C(C)C)C(=O)N(C)[C@@H](CC(C)C)C(=O)N[C@@H]([C@@H](C)O)C1=O [pd123] ([dNMeV][NMeF]P[NMeV][NMeL]T[NBuGly][NMeL]S(tBu)[NMeF][NMeA][NMeV]D-Piperidide; lactam N-13)
0.13 ×10⁻⁶ cm/s	0.13 10^-6 cm/sec	16.9 µL/min/mg	16.6 µL/min/mg Protein	CC[C@H](C)[C@H]1C(=O)N2CCC[C@H]2C(=O)N(C)[C@@H](C(C)C)C(=O)N(C)[C@@H](Cc2ccccc2)C(=O)N(C)[C@@H](C)C(=O)N(C)[C@@H](CC(C)C)C(=O)N[C@@H]([C@@H](C)O)C(=O)N(C)[C@@H](C)C(=O)N[C@@H](CCc2ccccc2)C(=O)N(C)[C@@H](CC(C)C)C(=O)N[C@H](C(=O)N2CCCCC2)CC(=O)N(C)CCCC(=O)N(C)[C@@H](CC(C)C)C(=O)N1C [pd124] ([NMeGABA][NMeL][NMeI]P[NMeV][NMeF][NMeA][NMeL]T[NMeA][hPhe][NMeL]D-Piperidide; lactam N-13)
0.13 ×10⁻⁶ cm/s	0.13 10^-6 cm/sec	16.7 µL/min/mg	18.1 µL/min/mg Protein	CC[C@H](C)[C@H]1C(=O)N(C)[C@@H]([C@@H](C)O)C(=O)N(C)[C@@H](CC)C(=O)N(C)[C@@H](CC(C)C)C(=O)N2CCC[C@H]2C(=O)N[C@H](C(=O)N2CCCCC2)CC(=O)N(C)[C@@H](C)C(=O)N[C@@H](CC(C)C)C(=O)N(C)[C@@H](CC(C)C)C(=O)N(C)[C@@H](C)C(=O)N2CCC[C@H]2C(=O)N[C@@H](CCc2ccccc2)C(=O)N(C)[C@@H](CC(C)C)C(=O)N1C [pd125] ([NMeA]L[NMeL][NMeA]P[hPhe][NMeL][NMeI][NMeT][NMeAbu][NMeL]PD-Piperidide; lactam N-13)
0.88 ×10⁻⁶ cm/s	0.88 10^-6 cm/sec	23.3 µL/min/mg	18.2 µL/min/mg Protein	CC[C@H]1C(=O)N(C)CC(=O)N[C@@H]([C@@H](C)O)C(=O)N(C)[C@@H](CC(C)C)C(=O)N[C@@H](CC(C)C)C(=O)N(C)[C@@H](Cc2ccccc2)C(=O)N(C)[C@@H](C(C)C)C(=O)N2CCC[C@H]2C(=O)N(C)[C@@H](C)C(=O)N(C)[C@@H](C(C)C)C(=O)N[C@H](C(=O)N2CCCCC2)CC(=O)N(C)[C@@H](CC(C)C)C(=O)N(C)[C@@H](Cc2ccccc2)C(=O)N1C [pd126] ([NMeL][NMeF][NMeAbu][Sar]T[NMeL]L[NMeF][NMeV]P[NMeA][NMeV]D-Piperidide; lactam N-13)
0.05 ×10⁻⁶ cm/s	0.05 10^-6 cm/sec	18 µL/min/mg	11.3 µL/min/mg Protein	CC[C@@H]1NC(=O)CN(C)C(=O)[C@H]([C@@H](C)O)NC(=O)[C@H](CC(C)C)N(C)C(=O)[C@H](C(C)C)NC(=O)[C@H](Cc2ccccc2)N(C)C(=O)[C@H](C)N(C)C(=O)[C@@H](C)NC(=O)C[C@@H](C)NC(=O)[C@H](C(C)C)N(C)C(=O)[C@H](Cc2ccccc2)N(C)C(=O)[C@H](COC(C)(C)C)NC(=O)[C@H](CC(C)C)N(C)C1=O [pd128] (cyclo([Abu][NMeL]S(tBu)[NMeF][NMeV][d(β3hA)][dA][NMeA][NMeF]V[NMeL]T[Sar]))
3.88 ×10⁻⁶ cm/s	3.88 10^-6 cm/sec	22.7 µL/min/mg	6.8 µL/min/mg Protein	CC[C@H](C)[C@@H]1NC(=O)[C@H](Cc2ccccc2)N(C)C(=O)[C@H](C(C)C)NC(=O)[C@@H](C)N(C)C(=O)C[C@@H](C)NC(=O)[C@H](C(C)C)N(C)C(=O)[C@H](Cc2ccccc2)N(C)C(=O)[C@H](COC(C)(C)C)NC(=O)[C@H](CC(C)C)N(C)C(=O)[C@H](C)N(C)C(=O)[C@@H]2CCCN2C(=O)[C@H]([C@@H](C)O)NC(=O)[C@H](CC(C)C)N(C)C1=O [pd130] (cyclo(I[NMeL]TP[NMeA][NMeL]S(tBu)[NMeF][NMeV][d(β3hA)][dNMeA]V[NMeF]))
